From paper PMC7587356, “High-Throughput Screening for Inhibitors of the SARS-CoV-2 Protease Using a FRET-Biosensor” (Molecules, 2020)
Counter-ions that a name gives are not always drawn. Like-named read-outs stand apart in the source and are kept apart here.

Molecular target: SARS-CoV-2 3CLpro (Severe acute respiratory syndrome coronavirus 2, UniProt P0DTD1)
Test: biochemical
Type: biochemical
Design: Replicate_1 / Replicate_2 / mean / mean (LOPAC_screen_w_protease): unit not given here
Conditions: for inhibition at 5 µM: 4 h
[1] = sheet LOPAC_screen_w_protease, LOPAC1280 primary screen at 5 µM, with protease, mean of the two replicates
[2] = sheet LOPAC_screen_w_protease, LOPAC1280 primary screen at 5 µM, with protease, replicate 1
[3] = sheet LOPAC_screen_w_protease, LOPAC1280 primary screen at 5 µM, with protease, replicate 2
[4] = LOPAC1280 primary screen with protease, 5 µM compound, mean of two replicates
[5] = LOPAC1280 primary screen with protease, 5 µM compound, replicate 1
[6] = LOPAC1280 primary screen with protease, 5 µM compound, replicate 2
[7] = LOPAC1280 primary screen with protease, 5 µM compound, replicate 1, read-out: Replicate_1 (LOPAC_screen_w_protease)
[8] = LOPAC1280 primary screen with protease, 5 µM compound, replicate 2, read-out: Replicate_2 (LOPAC_screen_w_protease)
[9] = sheet LOPAC_screen_w_protease, primary screen of LOPAC1280 at 5 µM with protease, mean of the two replicates, read-out: mean
[10] = sheet LOPAC_screen_w_protease, primary screen of LOPAC1280 at 5 µM with protease, replicate 1, read-out: Replicate_1
[11] = sheet LOPAC_screen_w_protease, primary screen of LOPAC1280 at 5 µM with protease, replicate 2, read-out: Replicate_2

In the case of `CCC1(C2=NCCN2)Cc2ccccc2O1` (stereo not drawn) [Efaroxan hydrochloride], the inhibition at 5 µM (sheet LOPAC_screen_w_protease, LOPAC1280 primary screen at 5 µM, with protease, mean of the two replicates, read-out: mean) is reported as 0.692%, the inhibition at 5 µM (sheet LOPAC_screen_w_protease, LOPAC1280 primary screen at 5 µM, with protease, replicate 1, read-out: Replicate_1) is reported as 2.34% and the inhibition at 5 µM (sheet LOPAC_screen_w_protease, LOPAC1280 primary screen at 5 µM, with protease, replicate 2, read-out: Replicate_2) is reported as -0.954%.
In the case of `COC(=O)C(N)Cc1ccc(Cl)cc1.Cl` (racemic), the mean [1] is reported as 0.6507, the Replicate_1 [2] is reported as 2.428 and the Replicate_2 [3] is reported as -1.1263.
With `CC(=O)NCCc1c[nH]c2ccc(O)cc12` [N-Acetyl-5-hydroxytryptamine] the “mean (LOPAC_screen_w_protease)” value [4] was 1.513, the “Replicate_1 (LOPAC_screen_w_protease)” value [5] was 1.947 and the “Replicate_2 (LOPAC_screen_w_protease)” value [6] was 1.078.
With `CN1[C@@H]2CC[C@H]1C[C@@H](OC(=O)c1cc(Cl)cc(Cl)c1)C2` [3-Tropanyl-3,5-dichlorobenzoate] the inhibition at 5 µM [7] was 2.08%, the inhibition at 5 µM [8] was 0.785% and the “mean (LOPAC_screen_w_protease)” value [4] was 1.4299.
With `CCCn1c(=O)c2[nH]c(-c3ccc(OCC(=O)Nc4ccc(C#N)cc4)cc3)nc2n(CCC)c1=O` [MRS 1754] the inhibition at 5 µM [9] was 3.78%, the inhibition at 5 µM [10] was 1.48% and the inhibition at 5 µM [11] was 6.08%.
Molecule `Cc1ncc(CNC(=O)N(CCCl)N=O)c(N)n1` [Nimustine hydrochloride] has an inhibition at 5 µM [9] of 3.43%, an inhibition at 5 µM [10] of 3.89% and an inhibition at 5 µM [11] of 2.97%.
With `CCn1cc(C(=O)O)c(=O)c2ccc(Cc3ccccc3)nc21` [Amfonelic acid] the inhibition at 5 µM [9] was 3.23%, the inhibition at 5 µM [10] was 4.99% and the inhibition at 5 µM [11] was 1.47%.
With `CNCC(O)c1ccc(O)cc1` (racemic) [(±)-Synephrine] the “mean (LOPAC_screen_w_protease)” value [4] was 1.431, the “Replicate_1 (LOPAC_screen_w_protease)” value [5] was 1.098 and the “Replicate_2 (LOPAC_screen_w_protease)” value [6] was 1.765.
In the case of `NC(=O)OCC(COC(N)=O)c1ccccc1` [Felbamate], the inhibition at 5 µM (sheet LOPAC_screen_w_protease, primary screen with protease, mean of two replicates, read-out: mean) is reported as 2.23%, the inhibition at 5 µM (sheet LOPAC_screen_w_protease, primary screen with protease, replicate 1, read-out: Replicate_1) is reported as 3.62% and the inhibition at 5 µM (sheet LOPAC_screen_w_protease, primary screen with protease, replicate 2, read-out: Replicate_2) is reported as 0.843%.
Molecule `Cc1nc(N=Nc2cc(S(=O)(=O)[O-])c3cc([N+](=O)[O-])cc(S(=O)(=O)[O-])c3c2)c(COP(=O)([O-])[O-])c(C=O)c1O.[Na+].[Na+].[Na+].[Na+]` [PPNDS tetrasodium] has a mean (sheet LOPAC_screen_w_protease, LOPAC1280 primary screen with protease, 5 µM compound, mean of the two replicates) of 5.708, a Replicate_1 (sheet LOPAC_screen_w_protease, LOPAC1280 primary screen with protease, 5 µM compound, replicate 1) of 4.956 and a Replicate_2 (sheet LOPAC_screen_w_protease, LOPAC1280 primary screen with protease, 5 µM compound, replicate 2) of 6.46.
With `CC(=O)SCC[N+](C)(C)C.[Cl-]` [Acetylthiocholine chloride] the mean [1] was 0.4496, the Replicate_1 [2] was 1.2654 and the Replicate_2 [3] was -0.3662.
For `CN(C)c1ccc(/C=C2\C(=O)Nc3ccccc32)cc1` [SU 4312], the mean (sheet LOPAC_screen_w_protease, primary screen with protease, 5 µM, mean of two replicates) was 0.09243, the Replicate_1 (sheet LOPAC_screen_w_protease, primary screen with protease, 5 µM, replicate 1) was 0.4934 and the Replicate_2 (sheet LOPAC_screen_w_protease, primary screen with protease, 5 µM, replicate 2) was -0.3085.
`CCCCOC(=O)NS(=O)(=O)c1sc(CC(C)C)cc1-c1ccc(Cn2c(CC)nc3c(C)cc(C)nc32)cc1` [L-162,313] was tested, and the “mean (LOPAC_screen_w_protease)” value (LOPAC1280 primary screen with protease, 5 µM compound, mean of the two replicates) was 1.8394, the “Replicate_1 (LOPAC_screen_w_protease)” value [5] was 2.383 and the “Replicate_2 (LOPAC_screen_w_protease)” value [6] was 1.2958.
Work on `CCN(CC)CCCC(C)Nc1ccnc2cc(Cl)ccc12` (stereo not drawn) [Chloroquine diphosphate] yielded an inhibition at 5 µM (read-out: Replicate_1) of 2.19%, an inhibition at 5 µM (read-out: Replicate_2) of 3.74% and an inhibition at 5 µM (read-out: mean) of 2.97%.
Molecule `CC(C)(C)c1cc(/C=C(\C#N)C(N)=S)cc(C(C)(C)C)c1O` [Tyrphostin AG 879] has an inhibition at 5 µM (sheet LOPAC_screen_w_protease, LOPAC1280 primary screen with protease, 5 µM compound, mean of the two replicates, read-out: mean) of 5.5%, an inhibition at 5 µM (sheet LOPAC_screen_w_protease, LOPAC1280 primary screen with protease, 5 µM compound, replicate 1, read-out: Replicate_1) of 5.93% and an inhibition at 5 µM (sheet LOPAC_screen_w_protease, LOPAC1280 primary screen with protease, 5 µM compound, replicate 2, read-out: Replicate_2) of 5.07%.
`COc1cc2c(CCNC(C)=O)c[nH]c2cc1O` [6-Hydroxymelatonin] was tested, and the mean (sheet LOPAC_screen_w_protease, primary screen with protease, mean of two replicates) was 2.302, the Replicate_1 (sheet LOPAC_screen_w_protease, primary screen with protease, replicate 1) was 3.2941 and the Replicate_2 (sheet LOPAC_screen_w_protease, primary screen with protease, replicate 2) was 1.31.
`CCn1cc(C(=O)O)c(=O)c2cc3c(cc21)OCO3` [Oxolinic acid] gave an inhibition at 5 µM [9] of 3.24%, an inhibition at 5 µM [10] of 3.47% and an inhibition at 5 µM [11] of 3%.
`CCCCC[C@H](CC(=O)NO)C(=O)N[C@H](C(=O)N1CCC[C@H]1CO)C(C)C` [Actinonin] was tested, and the inhibition at 5 µM [7] was 1.42%, the inhibition at 5 µM [8] was 1.48% and the “mean (LOPAC_screen_w_protease)” value [4] was 1.4498.
